Results: ChEMBL document CHEMBL4196012 (Eur J Med Chem, 2018)
Values after ≈ are worked out from the molar mass of the structure shown.

Experiments:
[1] = system: Staphylococcus aureus; assay: Antibacterial activity against Staphylococcus aureus ATCC 6538p after 18 hrs by agar dilution method; type: functional
[2] = system: Staphylococcus aureus; assay: Antibacterial activity against methicillin-resistant Staphylococcus aureus isolate 1 after 18 hrs by agar dilution method; type: functional; conditions: isolate 1, 18 h
[3] = system: Staphylococcus aureus; assay: Antibacterial activity against methicillin-resistant Staphylococcus aureus isolate 2 after 18 hrs by agar dilution method; type: functional; conditions: isolate 2, 18 h
[4] = system: Staphylococcus epidermidis; assay: Antibacterial activity against Staphylococcus epidermidis ATCC 12228 after 18 hrs by agar dilution method; type: functional; conditions: ATCC 12228, 18 h
[5] = system: Bacillus spizizenii; assay: Antibacterial activity against Bacillus subtilis ATCC 6633 after 18 hrs by agar dilution method; type: functional; conditions: ATCC 6633, 18 h
[6] = system: Escherichia coli; assay: Antibacterial activity against Escherichia coli ATCC 8739 after 18 hrs by agar dilution method; type: functional; conditions: ATCC 8739, 18 h
[7] = system: Klebsiella pneumoniae; assay: Antibacterial activity against Klebsiella pneumoniae ATCC 10031 after 18 hrs by agar dilution method; type: functional; conditions: ATCC 10031, 18 h
[8] = system: Pseudomonas aeruginosa; assay: Antibacterial activity against Pseudomonas aeruginosa ATCC 9027 after 18 hrs by agar dilution method; type: functional; conditions: ATCC 9027, 18 h
[9] = system: Bacillus subtilis; assay: Antibacterial activity against Bacillus subtilis PTCC 1023 by agar dilution method; type: functional
[10] = system: Staphylococcus aureus; assay: Antibacterial activity against Staphylococcus aureus ATCC 6538P by agar dilution method; type: functional
[11] = system: Staphylococcus epidermidis; assay: Antibacterial activity against Staphylococcus epidermidis ATCC 12228 by agar dilution method; type: functional
[12] = system: Staphylococcus aureus; assay: Antibacterial activity against quinolone-resistant Staphylococcus aureus after 16 to 20 hrs by NCCLS microdilution method; type: functional
[13] = system: Enterococcus faecium; assay: Antibacterial activity against vancomycin and quinolone-resistant Enterococcus faecium after 16 to 20 hrs by NCCLS microdilution method; type: functional
[14] = system: Streptococcus pneumoniae; assay: Antibacterial activity against quinolone-resistant Streptococcus pneumoniae after 16 to 20 hrs by NCCLS microdilution method; type: functional
[15] = system: Escherichia coli; assay: In vivo antibacterial activity against Escherichia coli NCTC 10419 infected in po dosed mouse administered at 1 and 4 hrs post infection; type: functional, organism-based
[16] = system: Escherichia coli; assay: microbe, parasite or virus in culture; conditions: NCTC 10419

| SMILES | MIC [1] | MIC [2] | MIC [3] | MIC [4] | MIC [5] | MIC [6] | MIC [7] | MIC [8] | MIC [9] | MIC [10] | MIC [11] | MIC [12] | MIC [13] | MIC [14] | EC50 [15] | MIC [16] |
| --- | --- | --- | --- | --- | --- | --- | --- | --- | --- | --- | --- | --- | --- | --- | --- | --- |
| O=C(CN1CCN(c2cc3c(cc2F)c(=O)c(C(=O)O)cn3C2CC2)CC1)c1cc2ccccc2oc1=O | 0.025 to 1.56 µg/mL (≈ 0.0483 to 3.01 µM) | 0.025 to 1.56 µg/mL (≈ 0.0483 to 3.01 µM) | 0.025 to 1.56 µg/mL (≈ 0.0483 to 3.01 µM) | 0.025 to 1.56 µg/mL (≈ 0.0483 to 3.01 µM) | 0.025 to 1.56 µg/mL (≈ 0.0483 to 3.01 µM) | 0.025 to 1.56 µg/mL (≈ 0.0483 to 3.01 µM) | 0.025 to 1.56 µg/mL (≈ 0.0483 to 3.01 µM) | 0.025 to 1.56 µg/mL (≈ 0.0483 to 3.01 µM) | – | – | – | – | – | – | – | – |
| O=C(O)c1cn(C2CC2)c2cc(N3CCNCC3)c(F)cc2c1=O [CIPROFLOXACIN] | – | – | – | – | – | – | – | – | 0.015 to 0.5 µg/mL (≈ 0.0453 to 1.51 µM) | 0.015 to 0.5 µg/mL (≈ 0.0453 to 1.51 µM) | 0.015 to 0.5 µg/mL (≈ 0.0453 to 1.51 µM) | ≥ 32 µg/mL | ≥ 32 µg/mL | ≥ 32 µg/mL | 1.25 mg/kg | 1.1 nM (≈ 0.364 ng/mL) |
